Results as given in PubChem BioAssay (NCI).
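All cell lines were grown in 96-well plates and treated with compound for 48 hours. Abbreviation: GI50, concentration required for 50% inhibition of growth. TGI denotes the concentration required for complete inhibition of growth.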

Assays:
Test in all cases: NCI tumour cell line growth inhibition, 48 h
TK-10 renal = tested on: TK-10 renal
COLO 205 colon = tested on: COLO 205 colon
A498 renal = tested on: A498 renal
NCI-H23 lung = tested on: NCI-H23 lung
SK-MEL-5 melanoma = tested on: SK-MEL-5 melanoma
LOX IMVI melanoma = tested on: LOX IMVI melanoma
U251 CNS = tested on: U251 CNS
HOP-62 NSCLC = tested on: HOP-62 NSCLC
NCI-H522 lung = tested on: NCI-H522 lung
SNB-75 CNS = tested on: SNB-75 CNS

Row | SMILES | TGI (TK-10 renal) [µM] | TGI (COLO 205 colon) [µM] | TGI (A498 renal) [µM] | TGI (NCI-H23 lung) [µM] | TGI (SK-MEL-5 melanoma) [µM] | TGI (LOX IMVI melanoma) [µM] | TGI (U251 CNS) [µM] | TGI (HOP-62 NSCLC) [µM] | TGI (NCI-H522 lung) [µM] | TGI (SNB-75 CNS) [µM] | GI50 (A498 renal) [nM] | GI50 (NCI-H23 lung) [nM] | GI50 (SNB-75 CNS) [nM] | GI50 (SK-MEL-5 melanoma) [nM] | GI50 (TK-10 renal) [µM] | GI50 (COLO 205 colon) [µM] | GI50 (NCI-H522 lung) [µM] | GI50 (LOX IMVI melanoma) [µM] | GI50 (U251 CNS) [µM] | GI50 (HOP-62 NSCLC) [µM]
1 | C[C@]12CC[C@@H]3c4ccc(OCCN5CCCC5)cc4CC[C@H]3[C@@H]1CCC2=O | > 100 | 35.6 | > 100 | > 100 | 30 | 29.7 | > 100 | 44.5 |  |  |  |  |  |  |  |  |  |  |  | 
2 | O=C(O)c1nccnc1C(=O)O | > 100 | > 100 |  | > 100 | > 100 | > 100 | > 100 |  | > 100 | > 100 |  |  |  |  |  |  |  |  |  | 
3 | Cc1ccc(C2CC(c3cccc(Nc4ccncc4)c3)=NN2c2ccccc2)cc1 (centres undefined) |  |  | 5.63 | 2.97 | 3.24 |  |  |  |  | 2.88 | 1860 | 1530 | 1320 | 1790 |  |  |  |  |  | 
4 | C[N+](C)([O-])Cc1cc(-c2ccccc2)ccc1O | > 100 |  | > 100 | > 100 | > 100 | > 100 | > 100 | > 100 | > 100 | > 100 |  |  |  |  |  |  |  |  |  | 
5 | O=c1nc2sc3ccc4ccccc4c3n2[nH]c1=O | > 100 | > 100 |  | > 100 | > 100 |  | > 100 | 71.5 | > 100 | > 100 |  |  |  |  |  |  |  |  |  | 
6 | CCCCN=C1OCc2[nH][nH]c(=O)c21 | > 100 | > 100 | > 100 | > 100 | > 100 | > 100 | > 100 | > 100 | > 100 | > 100 |  |  |  |  |  |  |  |  |  | 
7 | CCCOC1OC(CS(=O)(=O)O)C(O)C(O)C1O (centres undefined) | > 100 | > 100 | > 100 | > 100 | > 100 | > 100 | > 100 | > 100 |  | > 100 |  |  |  |  |  |  |  |  |  | 
8 | COc1cc2c(c(OC(C)=O)c1OC(C)=O)-c1ccc(SC)c(=O)cc1C(NC(C)=O)CC2 (centres undefined) | > 100 | 3.13 | 56.7 | 31.4 | 3.46 | > 100 | > 32 | > 75.5 | 1.2 |  |  |  |  |  |  |  |  |  |  | 
9 | [O-][n+]1c(-c2ccccc2)c2nc3ccccc3nc2c2ccccc21 | > 100 | > 100 | > 100 | > 100 | > 100 | > 100 | > 100 | > 100 | > 100 | 99 |  |  |  |  |  |  |  |  |  | 
10 | N#CCCN(CCC#N)c1ccc(/C=C2\N=C(c3cc([N+](=O)[O-])ccc3Cl)N(NC(=O)CC(=O)Nc3ccccc3Cl)C2=O)cc1 | > 100 | > 100 |  | > 100 | > 100 | > 100 | > 100 | > 100 | > 100 |  |  |  |  |  |  |  |  |  |  | 
11 | CCN(CC)CCNc1ccc2nnn3c4ccccc4c(=O)c1c23 | 22.9 | 16.2 | 24.2 | 19.7 | 10.3 | 12 | 9.22 | 15.8 | 16.4 | 11.9 |  |  |  |  |  |  |  |  |  | 
12 | CCOC(=O)NC(Nc1ccc(Cl)cn1)(C(F)(F)F)C(F)(F)F | > 100 |  | > 100 | > 100 |  | > 100 | > 100 | > 100 | > 100 | > 100 |  |  |  |  |  |  |  |  |  | 
13 | CC(C)CN(CC#N)CC(C)C | > 100 | > 100 | > 100 | > 100 | > 100 | > 100 | > 100 | > 100 | > 100 | > 100 |  |  |  |  |  |  |  |  |  | 
14 | O=C(O)Cn1c2c(c3c(O)cccc31)C(=O)c1ccccc1-2 | > 100 | > 100 | > 100 | > 100 | > 100 | > 100 | > 100 | > 100 | > 100 | > 100 | > 100000 | > 100000 | > 100000 | > 100000 | > 100 | > 100 | > 100 | > 100 | > 100 | > 100
15 | NC(N)=NC(N)=Nc1ccccc1 (tested in a mixture with another compound) | > 100 | > 100 | > 100 | > 100 | > 100 | > 100 | > 100 | > 100 | > 100 | > 100 |  |  |  |  |  |  |  |  |  | 
16 | C=CCc1cccc(/C=N\N=C(/N)NO)c1O |  | > 29.7 | > 51.6 | 26.5 | 20.7 | 22.7 | > 88.3 | 7.08 | 10.6 | 25.9 |  |  |  |  |  |  |  |  |  | 
